The source of these data is patent publication US10435400B2, “2,4-disubstituted phenylene-1,5-diamine derivatives and applications thereof, and pharmaceutical compositions and pharmaceutically acceptable compositions prepared therefrom” (SHANGHAI HAIYAN PHARMACEUTICAL TECHNOLOGY CO., LTD., priority 2014, dated 2019).

Like-named read-outs stand apart in the source and are kept apart here.

For experiment [1], the target named is EGFR WT kinase (Homo sapiens (Human), UniProt P00533). The experiment in a line: Wild type EGFR kinase inhibition test (z-lyte). To be noted: 10 μM ATP. Format: biochemical.
EGFR WT kinase, sequence (P00533 25-1210): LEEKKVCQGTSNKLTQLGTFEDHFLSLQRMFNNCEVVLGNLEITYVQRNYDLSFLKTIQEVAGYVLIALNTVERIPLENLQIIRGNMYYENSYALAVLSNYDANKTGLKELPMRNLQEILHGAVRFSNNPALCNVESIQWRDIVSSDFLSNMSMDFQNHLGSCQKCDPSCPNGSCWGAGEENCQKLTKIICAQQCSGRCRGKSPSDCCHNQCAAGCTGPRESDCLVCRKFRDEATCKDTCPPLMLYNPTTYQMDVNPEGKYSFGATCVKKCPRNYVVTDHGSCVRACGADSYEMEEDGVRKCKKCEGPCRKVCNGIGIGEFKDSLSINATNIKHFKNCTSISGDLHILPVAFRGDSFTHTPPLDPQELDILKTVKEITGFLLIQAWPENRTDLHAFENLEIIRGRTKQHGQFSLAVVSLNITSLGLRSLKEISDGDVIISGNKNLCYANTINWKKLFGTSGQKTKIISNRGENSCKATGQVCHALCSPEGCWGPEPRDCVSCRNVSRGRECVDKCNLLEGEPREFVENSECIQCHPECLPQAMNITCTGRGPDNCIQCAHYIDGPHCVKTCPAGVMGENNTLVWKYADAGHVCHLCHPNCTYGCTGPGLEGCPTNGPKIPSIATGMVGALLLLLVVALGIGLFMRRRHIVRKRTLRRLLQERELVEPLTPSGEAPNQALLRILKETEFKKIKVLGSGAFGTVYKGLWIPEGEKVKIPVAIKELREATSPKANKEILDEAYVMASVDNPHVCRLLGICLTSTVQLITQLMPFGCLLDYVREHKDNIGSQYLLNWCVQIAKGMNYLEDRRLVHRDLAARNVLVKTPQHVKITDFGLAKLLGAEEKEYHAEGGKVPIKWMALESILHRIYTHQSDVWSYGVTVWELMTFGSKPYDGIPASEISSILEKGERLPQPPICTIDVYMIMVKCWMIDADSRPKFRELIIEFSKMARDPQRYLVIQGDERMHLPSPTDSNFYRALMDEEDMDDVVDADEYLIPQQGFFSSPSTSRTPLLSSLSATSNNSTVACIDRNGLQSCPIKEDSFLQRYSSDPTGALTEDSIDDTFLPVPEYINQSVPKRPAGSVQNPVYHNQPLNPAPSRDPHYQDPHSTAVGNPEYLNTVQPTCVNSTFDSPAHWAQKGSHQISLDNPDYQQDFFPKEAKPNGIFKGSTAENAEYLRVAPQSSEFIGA
Experiment [2] concerns H1975 cells. The experiment in a line: Cytostatic activity by MTT method, H1975 cells. It is filed as cell-based. To be noted: MTT; for IC50: 72 h, read-out: H1975 cells (IC50/nM); for selective inhibitory activity against the cell growth [IC50 (A431 cells)/IC50 (H1975 cells)]: ratio of IC50 values. (In general: Tetrazolium dyes change colour on reduction, which living cells bring about.)
Protocol: MTT assay used the method well known to those skilled in the art, and the reagents used in the method can be commercially obtained. […] After rinsed for one time, 1.5 ml trypsin/EDTA was added to digest the adherent cells until the cells detached, and then 3.5 ml of medium was added to terminate the trypsinization. The digested cell suspension was transferred to a 15 ml falcon tube, and spun at 1300 rpm for 3 min, the supernatant was discarded, and cells were suspended in fresh medium. […] The plates were spun at 2000 rpm for 5 min.

Experiment [3] deals with H1975 cells. As to the kind of experiment: ELISA screening EGFR T790M inhibitor for cell activity, H1975 cells. It is filed as cell-based. To be noted: ELISA; for Selective inhibitory activities of target on cellular level [IC50 (A431 cells)/IC50 (H1975 cells)]: ratio of IC50 values; for IC50: compound 1 h, read-out: H1975 cells (IC50/nM).
Experiment [4] has as its system A431 cells. As to the kind of experiment: ELISA cell activity, EGF-stimulated A431 cells.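 Note: Serum-starved A431 cells pretreated with compound for 1 h, then stimulated with EGF for 45 min, lysates read by ELISA (OD450 minus OD570), EGF-only wells as control.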 To be noted: ELISA, compound 1 h then EGF 45 minutes, read-out: A431 cells (IC50/nM). It is filed as cell-based. (In general: ELISA stands for enzyme-linked immunosorbent assay.)
Protocol: The reagents, preparation methods of the solution, as well as the procedures of cell treatments and preparation of lysate, and the test steps of ELISA in the following method were conducted according to the instructions of R&D DYC3570, R&D DYC1095E and R&D DYC1095BE.
Cell lysates: cell lysis buffer+10 μg/ml Aprotinin (Sigma), 10 μg/ml Leupeptin (Sigma). All reagents were prepared when using.
(2) The medium of A431 cells was changed to 90 ul of DMEM FBS free medium, and incubated overnight.
(3) The test compounds were diluted according to the method in MTT assay, 10 μl of diluted compound or DMSO was added to the corresponding plate well, and incubated at 37° C. with 5% CO2 for 1 h. The final concentration of DMSO was 0.5%. 10 μl of 2 μg/L EGF was then added to each well except the cell control well, 10 μl of FBS free DMEM was added to the well, and incubated for 45 minutes; the EGF-free and compound treatment-free cells were used as cell control, and the compound treatment-free but only EGF-treated cells were used as EGF control.
(4) 100 μl cell lysate was added after aspirating the medium, sealed and placed in refrigerator at −80° C. overnight.
The assay was operated according to the instructions of R&D DYC3570E.
(5) 40 μl of cell lysis buffer and 60 μl of cell lysates were added, and incubated at 25° C. for 2 h under shaking;
(7) Detection antibody was diluted according to a predetermined ratio of kit instruction by using IC dilution, and 100 μl of the diluted Detection Antibody was added to each well, and incubated at 25° C. for 1 h under shaking in darkness;
(9) reagent A and reagent B of TMB substrate (R & D DY999) were mixed at 1:1, 100 μl of substrate was added to each well, and incubated at 25° C. for 20 minutes under shaking in darkness;
(11) The OD450 values and OD570 values of the cell control, blank control and compound treatment were measured respectively by using microplate reader (Thermo Multiskan K3), and the corresponding OD570 values were subtracted from OD450 values of the same wells to get the ODEGF, ODcompound and ODcell respectively.
Experiment [5] concerns A431 cells. The experiment in a line: Cytostatic activity by MTT method, A431 cells.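 Note: viability read by MTT reduction after compound exposure, with MTT incubated for a further 4 h at 37 °C under 5% CO2 in 96-well plates.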 To be noted: read-out: A431 cells (IC50/nM).
Protocol: (§1) After rinsed for one time, 1.5 ml trypsin/EDTA was added to digest the adherent cells until the cells detached, and then 3.5 ml of medium was added to terminate the trypsinization. The digested cell suspension was transferred to a 15 ml falcon tube, and spun at 1300 rpm for 3 min, the supernatant was discarded, and cells were suspended in fresh medium.
(§2) The cells were added into the incubator after addition of the test compound, and incubated for 72 h, 10 μl of 5 mg/ml MTT (Sigma, M5655) solution was added to each well of the plate, and incubated the 96-well plates at 37° C. 5% CO2 for 4 h in a incubator.
(§3) The plates were spun at 2000 rpm for 5 min.
Experiment [6] relates to NIH3T3 cells. As to the kind of experiment: Cytotoxicity by MTT method, NIH3T3 cells.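 Note: cells grown in 96-well plates with compound for 72 h, then given MTT for a further 4 h at 37 °C under 5% CO2.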 Format: cell-based. To be noted: cytotoxicity, MTT, 72 h, read-out: NIH3T3 cells MTT assay (IC50/nM).
Protocol: as §1, §2, §3

As to `C=CC(=O)Nc1cc(Nc2ncc(C(F)(F)F)c(-c3cnc4c(ccn4C)c3)n2)c(OC)cc1N(C)CCN(C)C` [Compound Z-22, N-(2-((2-(dimethylamino)ethyl)(methyl)amino)-4-methoxy-5-((4-(1-methyl-1H-pyrrolo[2,3-b]pyridin-5-yl)-5-(trifluoromethyl)pyrimidin-2-yl)amino)phenyl)acrylamide], the IC50 is 57 nM in experiment [1]; 29 nM in experiment [2] (Homo sapiens, NCI-H1975); 23 nM in experiment [3] (Homo sapiens, NCI-H1975); 1230 nM in experiment [4] (Homo sapiens, A-431); 1900 nM in experiment [5] (Homo sapiens, A-431, 72 h). For the same compound, in experiment [2], the “selective inhibitory activity against the cell growth [IC50 (A431 cells)/IC50 (H1975 cells)]” value (from here on “selective inhibitory activity”) came to 65.5. Moreover, in experiment [3], the “Selective inhibitory activities of target on cellular level [IC50 (A431 cells)/IC50 (H1975 cells)]” value (“Selective inhibitory activities” below) is on record as 53.6.
As for `C=CC(=O)Nc1cc(Nc2ncc(Cl)c(-c3cnc4c(ccn4C)c3)n2)c(OC)cc1N(C)CCN(C)C` [Compound Z-1, N-(5-(5-chloro-4-(1-methyl-1H-pyrrolo[2,3-b]pyridin-5-yl)pyrimidin-2-amino)-2-((2-(dimethylamino)ethyl)methylamino)-4-methoxyphenyl)acrylamide], the IC50 in experiment [1] is 25 nM; in experiment [6] it was 6590 nM; in experiment [3] it was 30 nM; in experiment [4] it was 471 nM. Also, the “Selective inhibitory activities” value in experiment [3] was 15.7.
Regarding `C=CC(=O)Nc1cc(Nc2ncc(OC)c(-c3cnc4c(cnn4C)c3)n2)c(OC)cc1N(C)CCN(C)C` [Compound Z-44], the IC50 in experiment [1] was found to be 30 nM; in experiment [2], 32 nM; in experiment [6], 8880 nM; in experiment [5] (MTT, 72 h), 1810 nM. For the same compound, in experiment [2], the “selective inhibitory activity” value is reported as 56.7.
Turning to `C=CC(=O)Nc1cc(Nc2ncc(Cl)c(-c3cnc4c(ccn4C)c3)n2)c(OC)cc1N1CC(N(C)C)C1` [Compound Z-113], the IC50 in experiment [1] came out at 121 nM; in experiment [6], 5320 nM; in experiment [3], 99 nM; in experiment [4] it was 2250 nM. Further, the “Selective inhibitory activities” value in experiment [3] amounted to 22.8.
The matching figures for `C=CC(=O)Nc1cc(Nc2nccc(-c3cnc4c(ccn4C)c3)n2)c(OC)cc1N(C)CCN(C)CC` [Compound Z-105]: 7 nM, 9360 nM, 28 nM, 181 nM and 6.5.
For the compound `C=CC(=O)Nc1cc(Nc2ncc(Cl)c(-c3ccn(C)c3)n2)c(OC)cc1N1CCC(N(C)C)CC1` [Compound Z-98, N-(5-(5-chloro-4-(1-methyl-1H-pyrrol-3-yl)pyrimidin-2-ylamino)-2-(4-(dimethylamino)piperidin-1-yl)-4-methoxyphenyl)acrylamide], the IC50 turned out to be 407 nM in experiment [1]; 108 nM in experiment [2] (Homo sapiens, NCI-H1975); 4360 nM in experiment [6] (Mus musculus, NIH3T3); 1640 nM in experiment [5] (Homo sapiens, A-431, 72 h). For the same compound, in experiment [2], the “selective inhibitory activity” value is on record as 15.2.
As for `C=CC(=O)Nc1cc(Nc2nccc(-c3cnc4[nH]ccc4c3)n2)c(OC)cc1N(C)CCN(C)C` [Compound Z-30], the IC50 in experiment [2] came out at 25 nM; in experiment [6], 5790 nM; in experiment [5] (MTT, 72 h), 1110 nM. Also, the “selective inhibitory activity” value in experiment [2] is 44.4.
With `C=CC(=O)Nc1cc(Nc2ncc(Cl)c(-c3cnn(C)c3C)n2)c(OC)cc1N(C)CCN(C)C` [Compound Z-55], the IC50 came to 21 nM in experiment [1]; 5420 nM in experiment [6]; 15 nM in experiment [3]; 200 nM in experiment [4]; 660 nM in experiment [5] (MTT, 72 h).
In the case of `C=CC(=O)Nc1cc(Nc2nccc(-c3cnc4c(ccn4C)c3)n2)c(OC)cc1N(C)CCCN(C)C` [Compound Z-108], the IC50 was 77 nM in experiment [2]; 3620 nM in experiment [6]; 2900 nM in experiment [5] (MTT, 72 h). Also, the “selective inhibitory activity” value in experiment [2] came out at 37.7.
Take `C=CC(=O)Nc1cc(Nc2ncc(Cl)c(-c3cnc4c(ccn4C)c3)n2)c(OC)cc1N(C)CCN(C)CC` [Compound Z-109]: the IC50 in experiment [1] was 28 nM; in experiment [6] it was 6000 nM; in experiment [3], 85 nM; in experiment [4], 434 nM. In addition, in experiment [3], the “Selective inhibitory activities” value is recorded as 5.1.
On to `C=CC(=O)Nc1cc(Nc2nccc(-c3cnc4c(cnn4C)c3)n2)c(OC)cc1N(C)CCN(C)C` [Compound Z-6, N-(2-((2-(dimethylamino)ethyl)(methyl)amino)-4-methoxy-5-(4-(1-methyl-1H-pyrazolo[3,4-b]pyridin-5-yl)pyrimidin-2-ylamino)phenyl)acrylamide], for which the IC50 was 10 nM in experiment [1]; 17 nM in experiment [2] (Homo sapiens, NCI-H1975); 34 nM in experiment [3] (Homo sapiens, NCI-H1975); 194 nM in experiment [4] (Homo sapiens, A-431); 773 nM in experiment [5] (Homo sapiens, A-431, 72 h). In addition, the “selective inhibitory activity” value in experiment [2] amounted to 45.5. The “Selective inhibitory activities” value in experiment [3] turned out to be 5.7.
In the case of `C=CC(=O)Nc1cc(Nc2ncc(OC)c(-c3cnc4ccccc4c3)n2)c(OC)cc1N1CCC(N(C)C)CC1` [compound 3, reference compound], the IC50 was found to be 437 nM in experiment [2] (Homo sapiens, NCI-H1975); 1140 nM in experiment [3] (Homo sapiens, NCI-H1975); 3110 nM in experiment [4] (Homo sapiens, A-431); 2970 nM in experiment [5] (Homo sapiens, A-431, 72 h). Also, in experiment [2], the “selective inhibitory activity” value stood at 6.8. For the same compound, the “Selective inhibitory activities” value in experiment [3] came out at 2.7.
Turning to `C=CC(=O)Nc1cc(Nc2nccc(-c3cnc4c(ccn4C)c3)n2)c(OC)cc1N(C)CCNC` [Compound Z-106], the IC50 in experiment [1] was 4 nM; in experiment [2] it was 13 nM; in experiment [3], 12 nM; in experiment [4], 193 nM; in experiment [5] (MTT, 72 h), 685 nM. Further, in experiment [2], the “selective inhibitory activity” value is 52.7. Besides, in experiment [3], the “Selective inhibitory activities” value worked out at 16.1.
For `C=CC(=O)Nc1cc(Nc2nccc(-c3cnc4c(ccn4C)c3)n2)c(OC)cc1N(C)CCN(CC)CC` [Compound Z-107], the IC50 in experiment [1] amounted to 16 nM; in experiment [2], 37 nM; in experiment [3], 55 nM; in experiment [4], 855 nM; in experiment [5] (MTT, 72 h), 1410 nM. The “selective inhibitory activity” value in experiment [2] came out at 38.2. The “Selective inhibitory activities” value in experiment [3] is reported as 15.5.
For the compound `C=CC(=O)Nc1cc(Nc2ncc(Cl)c(-c3cnn(C)c3)n2)c(OC)cc1N(C)CCN(C)C` [Compound Z-19, N-(5-((5-chloro-4-(1-methyl-1H-pyrazol-4-yl)pyrimidin-2-yl)amino)-2-((2-(dimethylamino)ethyl)(methyl)amino)-4-methoxyphenyl)acrylamide], the IC50 in experiment [2] (Homo sapiens, NCI-H1975) stood at 22 nM; in experiment [6] (Mus musculus, NIH3T3), 4510 nM; in experiment [3] (Homo sapiens, NCI-H1975) it was 21 nM; in experiment [4] (Homo sapiens, A-431), 675 nM; in experiment [5] (Homo sapiens, A-431, 72 h) it was 757 nM.
`C=CC(=O)Nc1cc(Nc2nccc(-c3cnc4c(ccn4C)c3)n2)c(OC)cc1N(C)CCN1CCCC1` [Compound Z-112]: the IC50 in experiment [1] is 22 nM; in experiment [6] it was more than 10000 nM; in experiment [3] it was 77 nM; in experiment [4] it was 486 nM. In experiment [3], the “Selective inhibitory activities” value is given as 6.3.
`C=CC(=O)Nc1cc(Nc2nccc(-c3cnc4c(ccn4C(C)C)c3)n2)c(OC)cc1N(C)CCN(C)C` [Compound Z-124]: the IC50 came to 13 nM in experiment [1]; 38 nM in experiment [2]; 3240 nM in experiment [6]; 1780 nM in experiment [5] (MTT, 72 h). Also, in experiment [2], the “selective inhibitory activity” value came to 46.8.
Consider `C=CC(=O)Nc1cc(Nc2ncc(Cl)c(-c3cn[nH]c3)n2)c(OC)cc1N1CCC(N(C)C)CC1` [Compound Z-102, N-(5-(5-chloro-4-(1H-pyrazol-4-yl)pyrimidin-2-ylamino)-2-(4-(dimethylamino)piperidin-1-yl)-4-methoxyphenyl)acrylamide], for which the IC50 in experiment [2] (Homo sapiens, NCI-H1975) turned out to be 15 nM; in experiment [3] (Homo sapiens, NCI-H1975) it was 11 nM; in experiment [4] (Homo sapiens, A-431) it was 1020 nM; in experiment [5] (Homo sapiens, A-431, 72 h), 597 nM.
As for `C=CC(=O)Nc1cc(Nc2nccc(-c3cccnc3)n2)c(OC)cc1N1CCC(N(C)C)CC1` [compound 2, reference compound], the IC50 came out at 277 nM in experiment [2] (Homo sapiens, NCI-H1975); 241 nM in experiment [3] (Homo sapiens, NCI-H1975); 199 nM in experiment [4] (Homo sapiens, A-431); 6660 nM in experiment [5] (Homo sapiens, A-431, 72 h). The “selective inhibitory activity” value in experiment [2] amounted to 24. In addition, the “Selective inhibitory activities” value in experiment [3] came out at 0.83.
For the compound `C=CC(=O)Nc1cc(Nc2ncc(F)c(-c3cnc4c(cnn4C)c3)n2)c(OC)cc1N(C)CCN(C)C` [Compound Z-41], the IC50 in experiment [1] is 20 nM; in experiment [6], more than 10000 nM; in experiment [3] it was 31 nM; in experiment [4], 954 nM. Moreover, the “Selective inhibitory activities” value in experiment [3] worked out at 30.8.
Regarding `C=CC(=O)Nc1cc(Nc2ncc(F)c(-c3cnc4c(c3)c(Cl)cn4C)n2)c(OC)cc1N(C)CCN(C)C` [Compound Z-123], the IC50 turned out to be 3 nM in experiment [1]; 26 nM in experiment [2]; 4740 nM in experiment [6]; 1040 nM in experiment [5] (MTT, 72 h). Further, the “selective inhibitory activity” value in experiment [2] came to 40.2.
